“Also recorded” adds a separate entry of the source. Non-standard residues stand in square brackets, D forms with d. Residues, ends and D or L forms follow the SMILES beside them. *: point of attachment. RhodamineB = CCN(CC)c1ccc2c(-c3ccccc3C(=O)*)c3ccc(=[N+](CC)CC)cc-3oc2c1; Nphe = O=C(O)CNCc1ccccc1; Nlys = NCCCCNCC(=O)O
Columns and labels:
HeLa cells [1] = assay: Localization assay: cellular uptake and organellar localization by confocal microscopy; assay type: cell-based, human; conditions: 5 µM, 5 h, 37 °C
Protocol: As 15-Rhod to 24-Rhod were not toxic at 5 µM the following transport experiments were carried out using this concentration. To study their cellular uptake and organellar localization, HeLa cells were treated with 5 µM of the cyclic conjugates 15-Rhod to 24-Rhod for 5 h and eventually imaged using confocal microscopy (for experimental details, see supplemental Material).
FIGURE 4 Localization of the macrocyclic conjugates 15-Rhod to 24-Rhod in HeLa cells. After incubation with a 5.0 µM solution of the respective transporters for 5 h, the cellular uptake was monitored via fluorescent confocal microscopy (Rhodamine B labeled hybrids: λ Exc = 532 nm, λ Em = 570–620 nm; MitoTracker® Green: λ Exc = 488 nm, λ Em = 490–540 nm; Hoechst 33,342: λ Exc = 405 nm, λ Em = 430–490 nm). Counterstaining with MitoTracker® Green visualized mitochondria (green). Staining with 2 μg/ml Hoechst 33,342 indicated nuclei (blue). Scale bar: 10 µm.
In an 8-well chamber slide (µ-Slide 8-Well ibidiTreat, ibidi®), 1.0 × 10^4 HeLa cells per well were cultivated for 16 h. The cyclic hybrids were diluted with DMEM to yield a 5 µM concentration. The cells were treated with the hybrids for 5 h at 37 °C. To monitor the intracellular localization, the cells were counterstained with MitoTracker® (Invitrogen) and 2 µg/mL Hoechst 33342. After washing with DPBS (3 ×), the luminescence was monitored via life-cell imaging using a Leica TCS-SPE confocal microscope (DM2500 inverse microscope, 8 Bit resolution, 1024 × 1024 pixels), equipped with a 1 Airy pinhole aperture (111.5 µm), ACS APO 63.0x/1.30 OIL UV and 40x/1.14 OIL UV objectives and the images were processed by the Leica Application Suite (LAS-AF) Version 2.1.2 build 4530 software. Images were taken with a scanning frequency of 400 Hz. Background noise was averaged by an eight-fold repetition of the scan process. The cyclic hybrids were excited at 532 nm, MitoTracker® Green at 488 nm, and Hoechst 33342 at 405 nm. The exposure was set to minimize oversaturated pixels in the final images. Fluorescence emission was measured at 570–620 nm for the detection of rhodamine B labeled hybrids, at 490–540 nm for the detection of mitochondria, and 430–490 nm for the detection of nuclei.

HeLa cells [2] = assay: Cellular uptake at 4 °C and 37 °C (CLSM, Figure S1); assay type: cell-based, human; conditions: 5 µM, 2 h incubation at 4 °C and 37 °C
From the text: The molecular transporters 15-Rhod, 20-Rhod and 22-Rhod are characterized by low cytotoxicity, efficient cellular uptake, and high specificity. Thus, they represent the most promising cyclic hybrids capable of the transport of different cargos into mitochondria. […] The capability of hydrophobic structures to function as molecular transporters is also known for so-called hydrophobic CPPs. However, only a few members of this substance class have been discovered yet. ([Xie et al., 2020]; [Desale et al., 2021]) It is assumed, that hydrophobic CPPs may penetrate cellular membranes in a direct, energy-independent manner dispensing with endocytosis. ([Gao et al., 2002]; [Gao et al., 2011]; [Nakayama et al., 2011]; [Guidotti et al., 2017]; [Tian et al., 2017]) The latter leads to a major challenge as molecular transporters might not escape the endosomes and get degraded instead of reaching their designated targets. […] The efficient internalization at a low temperature led us to the assumption that 22-Rhod might directly penetrate the cell membrane. However, the uptake mechanism of macrocyclic hybrids will be further examined.
Figure S1: Confocal Laser Scanning Microscopy (CLSM) images of HeLa cells after 2 h incubation with 5 µM peptoid 22-Rhod at 4 °C (top line, A) and 37 °C (bottom line, B). […]

in vitro = assay type: cell-based; conditions: human
Protocol: The cytotoxicity of the macrocyclic hybrids 15–24, as well as their conjugates 15-Rhod to 24-Rhod, was examined using a standard MTT assay in human epithelial cervix carcinoma (HeLa) cells. […] ([Mosmann, 1983]; [Tolosa et al., 2015]) After treatment of HeLa cells with different concentrations of the respective macrocycles 15–24 (0.50─50 µM) for 72 h, no significant cytotoxic effects were observed. […] As shown by many research groups that Rhodamine B by itself is not efficiently entering the cells showing therefore an LD50 > 50 μM, we assume that this the toxicity of the Rhodamine moiety might be higher when increasingly localizing in the mitochondria to a higher amount.
In a 96-well plate (Corning® Costar® 3596 96-Well Cell Culture Cluster), 1.0 × 10^4 HeLa-cells per well of a 96 well plate were cultivated for 16 h. Stock solutions of the single compounds in dimethylsulfoxide were diluted to 0.50 µm, 5.00 µm, and 50.0 µm with cell culture medium (DMEM + 10% FBS + 1% P/S) to ensure a final concentration of DMSO below 0.5%. 100 µL of the prepared DMEM diluted compounds were added to each well and the cells were incubated for 72 h. All experiments were performed in triplicates. Cells that were solely treated with the culture medium containing 0.5% of DMSO served as a negative control. After incubation, the positive control (cells in DMSO plus 0.5% DMSO) was treated with 1% Triton-X. To determine the viability of the cells 20 µL of a freshly prepared solution of 3-(4,5-dimethylthiazol-2-yl)-2,5-diphenyltetrazolium bromide (MTT, 2.73 mg/mL, Sigma-Aldrich®) in culture medium were added to each well and incubated at 37 °C for 4 h. The reaction was stopped using 100 µL of Solubilization Solution / Stop Mix (CellTiter 96® Non-Radioactive Cell Proliferation Assay, Promega). After 24 h, the absorption (A) of every well at 595 nm was monitored using a 96-well plate reader (Ultra Microplate Reader ELx808, Biotech Instruments Inc.).

cells = conditions: free dye, not efficiently entering the cells; ref many research groups (reference not given); cited from earlier work
Protocol: The cytotoxicity of the macrocyclic hybrids 15–24, as well as their conjugates 15-Rhod to 24-Rhod, was examined using a standard MTT assay in human epithelial cervix carcinoma (HeLa) cells. […] ([Mosmann, 1983]; [Tolosa et al., 2015]) After treatment of HeLa cells with different concentrations of the respective macrocycles 15–24 (0.50─50 µM) for 72 h, no significant cytotoxic effects were observed.

| IC50 at 72 h (in vitro) | Structure (SMILES) | Cellular uptake efficiency (HeLa cells [1]; confocal microscopy of Rhodamine B fluorescence (Exc 532 nm, Em 570–620 nm)) | Organellar localization (mitochondria) (HeLa cells [1]; counterstaining with MitoTracker Green, confocal microscopy) | Mitochondrial uptake at 37 °C and at 4 °C (HeLa cells [2]) | LD50 of Rhodamine B by itself (cells) |
| --- | --- | --- | --- | --- | --- |
| 44 µM | CCN(CC)c1ccc2c(-c3ccccc3C(=O)NCCCCN3CC(=O)N(Cc4ccccc4)CC(=O)N(Cc4ccccc4)CC(=O)N(Cc4ccccc4)CC(=O)N[C@@H](Cc4ccccc4)C(=O)N[C@@H](Cc4ccccc4)C3=O)c3ccc(=[N+](CC)CC)cc-3oc2c1 [22-Rhod, cyclo-(l-Phe-N1ph-N1ph-N1ph-N4am(Rhod)-l-Phe)] (cyclo(FF[Nlys](RhodamineB)[Nphe][Nphe][Nphe])) | efficiently taken up; also recorded: high cellular uptake efficiency | mitochondrial specificity | occurring at 37 °C as well as at 4 °C | – |
| – | CCN(CC)c1ccc2c(-c3ccccc3C(=O)O)c3ccc(=[N+](CC)CC)cc-3oc2c1 [Rhodamine B] | – | – | – | > 50 µM |

Reference: article PMC8267177, “Cyclic Peptoid-Peptide Hybrids as Versatile Molecular Transporters” (Frontiers in Chemistry, 2021)
